Data as given in patent US10898481B2 (priority 2018, dated 2021).

Columns and labels:
[1] = target: hADORA1/CHO (hA1 expressing) cells (Homo sapiens (Human), UniProt P30542); experiment: cell-based; conditions: FLIPR inhibition, 10 μM adenosine, read-out: cAMP & FLIPR IC50 (nM) hA1
Protocol: hADORA1/CHO (hA1 expressing) cells (Genscript) were plated at 1×10^4 cells/well into 384-well polystyrene plates one day before starting the experiment. On the day of experiment, the supernatant was discard and replaced with 40 μL of dye (FLIPR calcium 5 Assay Kit) per well and the plates were incubated for 60 mins at 37° C. plus 5% CO2. Then testing compounds were added at different concentrations for FLIPR™ inhibition assay. After a 400s incubation with compound, 10 μM adenosine was added into the cells, and the signal was captured by FLIPR.

mA2a/CHO = mA2a/CHO (Mus musculus (Mouse), UniProt Q60613); experiment: cAMP inhibition assay in mA2a/CHO cells, 10 μM adenosine; assay type: cell-based; conditions: read-out: cAMP & FLIPR IC50 (nM) mA2a;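 note: compounds preincubated 30 min at 37 °C before the adenosine challenge, then 30 min further stimulation, readout after 60 min detection reagent incubation at room temperature in 384-well plates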
Chain of mA2a/CHO (Q60613 whole entry): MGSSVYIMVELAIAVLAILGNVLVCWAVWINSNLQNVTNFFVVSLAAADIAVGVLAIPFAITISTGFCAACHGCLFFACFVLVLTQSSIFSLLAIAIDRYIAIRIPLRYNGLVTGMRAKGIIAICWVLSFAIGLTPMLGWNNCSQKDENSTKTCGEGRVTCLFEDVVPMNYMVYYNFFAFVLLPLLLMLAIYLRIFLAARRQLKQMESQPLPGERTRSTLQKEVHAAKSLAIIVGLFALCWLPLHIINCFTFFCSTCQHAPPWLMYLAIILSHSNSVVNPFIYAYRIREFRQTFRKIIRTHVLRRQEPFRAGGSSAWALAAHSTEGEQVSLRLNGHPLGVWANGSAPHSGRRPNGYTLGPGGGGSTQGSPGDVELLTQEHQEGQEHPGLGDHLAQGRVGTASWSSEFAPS
Protocol: (§1) hA2a/CHO, hA2b/CHO, hA3/CHO and mA2a/CHO (Genscript) were plated at 5×10^3 cells/well into 384-well polystyrene plates at the day of experiment. Compounds were pre-incubated with cells for 30 min at 37° C., 5% CO2. Then 10 μM adenosine was added to the cells and incubated for 30 min at 37° C., 5% CO2. Detection reagent (CISBIO) was added and the plates were incubated for 60 min at room temperature. The signal was captured by Envision.

hA2a/CHO = hA2a/CHO (Homo sapiens (Human), UniProt P29274); experiment: cAMP inhibition assay in hA2a/CHO cells, 10 μM adenosine; assay type: cell-based; conditions: read-out: cAMP & FLIPR IC50 (nM) hA2a;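 note: compounds added to cells 30 min ahead of adenosine, then a further 30 min at 37 °C with adenosine before cAMP detection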
Chain of hA2a/CHO (P29274 whole entry): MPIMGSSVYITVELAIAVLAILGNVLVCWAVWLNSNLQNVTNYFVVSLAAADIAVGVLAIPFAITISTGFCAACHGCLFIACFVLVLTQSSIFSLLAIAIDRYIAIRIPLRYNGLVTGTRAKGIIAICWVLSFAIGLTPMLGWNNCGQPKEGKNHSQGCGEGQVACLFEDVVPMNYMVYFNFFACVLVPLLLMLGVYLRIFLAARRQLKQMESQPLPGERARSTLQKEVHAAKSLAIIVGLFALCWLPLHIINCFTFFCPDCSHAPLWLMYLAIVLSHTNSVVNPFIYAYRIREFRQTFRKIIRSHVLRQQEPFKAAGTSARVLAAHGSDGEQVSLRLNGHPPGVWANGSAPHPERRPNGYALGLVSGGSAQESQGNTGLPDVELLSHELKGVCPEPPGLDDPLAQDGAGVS
Protocol: as §1

hA2b/CHO = hA2b/CHO (Homo sapiens (Human), UniProt P29275); experiment: cAMP inhibition assay in hA2b/CHO cells, 10 μM adenosine; assay type: cell-based; conditions: read-out: cAMP & FLIPR IC50 (nM) hA2b;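 note: cells exposed to compound 30 min at 37 °C, then stimulated with adenosine a further 30 min, cAMP read after 60 min at room temperature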
Chain of hA2b/CHO (P29275 whole entry): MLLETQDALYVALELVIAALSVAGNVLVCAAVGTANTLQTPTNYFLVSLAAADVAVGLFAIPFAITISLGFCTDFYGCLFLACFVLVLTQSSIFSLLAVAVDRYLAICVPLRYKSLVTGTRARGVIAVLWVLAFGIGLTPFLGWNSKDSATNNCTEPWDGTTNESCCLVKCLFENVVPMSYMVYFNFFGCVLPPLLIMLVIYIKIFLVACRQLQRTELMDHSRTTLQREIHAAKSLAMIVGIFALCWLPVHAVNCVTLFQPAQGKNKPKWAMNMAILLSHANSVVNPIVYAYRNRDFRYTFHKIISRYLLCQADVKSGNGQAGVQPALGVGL
Protocol: as §1

Chain of hADORA1/CHO (hA1 expressing) cells (P30542 whole entry): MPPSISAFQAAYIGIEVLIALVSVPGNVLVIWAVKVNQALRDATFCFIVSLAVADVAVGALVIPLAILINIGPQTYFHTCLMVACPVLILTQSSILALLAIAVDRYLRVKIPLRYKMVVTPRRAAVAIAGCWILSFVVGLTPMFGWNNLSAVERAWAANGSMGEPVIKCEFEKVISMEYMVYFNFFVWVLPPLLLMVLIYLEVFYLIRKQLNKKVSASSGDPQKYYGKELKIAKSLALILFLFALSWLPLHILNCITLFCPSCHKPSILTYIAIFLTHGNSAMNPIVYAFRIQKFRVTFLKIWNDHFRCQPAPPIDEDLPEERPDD

SMILES	IC50 [1] [nM]	IC50 (mA2a/CHO) [nM]	IC50 (hA2a/CHO) [nM]	IC50 (hA2b/CHO) [nM]
Nc1ccnc(CNC(=O)c2nc(-c3ccc4nccn4c3)c(-c3ncco3)nc2N)n1 [Example 95, 3-amino-N-[(4-aminopyrimidin-2-yl)methyl]-6-[imidazo[1,2-a]pyridin-6-yl]-5-(1,3-oxazol-2-yl)pyrazine-2-carboxamide]	10000	667	69	78
Cc1cc(-c2nc(C(=O)NCc3c(F)cccc3F)c(N)nc2-c2ncco2)cc(C)n1 [Example 5, 3-amino-N-(2,6-difluorobenzyl)-6-(2,6-dimethylpyridin-4-yl)-5-(oxazol-2-yl)pyrazine-2-carboxamide]	10000	219	28	≥ 10000
CN1CCCC1CNC(=O)c1nc(-c2ccc3ncc(C(F)(F)F)n3c2)c(-c2ncco2)nc1N (single isomer, unassigned) [Cmpd. 206]	2490	50	5.3	707
Cc1cnc2ccc(-c3nc(C(=O)NC[C@@H]4CCCN4)c(N)nc3-c3ncco3)cn12 [Example 123, (S)-3-amino-6-(3-methylimidazo[1,2-a]pyridin-6-yl)-5-(oxazol-2-yl)-N-(pyrrolidin-2-ylmethyl)pyrazine-2-carboxamide]	10000	153	56	1310
Nc1nc(-c2ncco2)c(-c2ccc(=O)n(C3COC3)c2)nc1C(=O)NCc1c(F)cccc1F [Example 42, 3-amino-N-[(2,6-difluorophenyl)methyl]-5-(1,3-oxazol-2-yl)-6-[1-(oxetan-3-yl)-6-oxo-1,6-dihydropyridin-3-yl]pyrazine-2-carboxamide]	51	16	14	102
Cc1cnc2ccc(-c3nc(C(=O)NC[C@@H]4CC(F)(F)CN4C)c(N)nc3-c3ncco3)cn12 [Example 161, (S)-3-amino-N-((4,4-difluoro-1-methylpyrrolidin-2-yl)methyl)-6-(3-methylimidazo[1,2-a]pyridin-6-yl)-5-(oxazol-2-yl)pyrazine-2-carboxamide]	34	0.8	0.95	98
Cn1cc(-c2nc(C(=O)NCc3ncccc3CO)c(N)nc2-c2ncco2)ccc1=O [Example 36, 3-amino-N-((3-(hydroxymethyl)pyridin-2-yl)methyl)-6-(1-methyl-6-oxo-1,6-dihydropyridin-3-yl)-5-(oxazol-2-yl)pyrazine-2-carboxamide]	3010	419	180	2530
CC(O)Cn1cc(-c2nc(C(=O)NCc3c(F)cccc3F)c(N)nc2-c2ncco2)ccc1=O (single isomer, unassigned) [Example 107, 3-amino-N-(2,6-difluorobenzyl)-6-(1-(2-hydroxypropyl)-6-oxo-1,6-dihydropyridin-3-yl)-5-(oxazol-2-yl)pyrazine-2-carboxamide]	341	166	76	3490
Cn1cnc2ccc(-c3nc(C(=O)NCc4ncccc4OCCO)c(N)nc3-c3ccc(F)cc3)cc21 [Example 113, 3-amino-5-(4-fluorophenyl)-N-[[3-(2-hydroxyethoxy)pyridin-2-yl]methyl]-6-(1-methyl-1H-1,3-benzodiazol-6-yl)pyrazine-2-carboxamide]	70	1	0.4	68
CN1CCC[C@H]1CNC(=O)c1nc(-c2ccc3ncn(C)c3c2)c(-n2nccn2)nc1N [Example 130, 3-amino-6-(1-methyl-1H-1,3-benzodiazol-6-yl)-N-[[(2S)-1-methylpyrrolidin-2-yl]methyl]-5-(2H-1,2,3-triazol-2-yl)pyrazine-2-carboxamide]	10000	2800	295	≥ 10000
Cc1cnc2ccc(-c3nc(C(=O)NCc4cccc(N[C@H]5C[C@@H](N(C)C)C5)n4)c(N)nc3-c3ncco3)cn12 [Cmpd. 224, Cis-3-amino-6-[3-methylimidazo[1,2-a]pyridin-6-yl]-5-(1,3-oxazol-2-yl)-N-[(6-[[3-(di-methylamino)cyclobutyl]amino]pyridin-2-yl)methyl]pyrazine-2-carboxamide]	7880	27	3.2	245
Cn1cc(-c2nc(C(=O)NCc3c(F)cccc3OC(F)F)c(N)nc2-c2ccc(F)cc2)ccc1=O [Example 73, 3-amino-N-(2-(difluoromethoxy)-6-fluorobenzyl)-5-(4-fluorophenyl)-6-(1-methyl-6-oxo-1,6-dihydropyridin-3-yl) pyrazine-2-carboxamide]	20	4.2	0.4	8.1
COc1ccccc1CNC(=O)c1nc(-c2cc(C)nc(C)c2)c(-n2ccc(C)n2)nc1N [Example 75, 3-amino-6-(2,6-dimethylpyridin-4-yl)-N-(2-methoxybenzyl)-5-(3-methyl-1H-pyrazol-1-yl)pyrazine-2-carboxamide]	44	157	6.1	≥ 10000
Cc1cnc2ccc(-c3nc(C(=O)NCC4CN(C)CCO4)c(N)nc3-c3ncco3)cn12 (racemic) [Example 207, rac-3-amino-6-(3-methylimidazo[1,2-a]pyridin-6-yl)-N-((4-methylmorpholin-2-yl)methyl)-5-(oxazol-2-yl)pyrazine-2-carboxamide]	5950	44	12	774
COC[C@@H](C)NC(=O)c1nc(-c2ccc3ncc(C)n3c2)c(-c2ncco2)nc1N [Example 159, (R)-3-amino-N-(1-methoxypropan-2-yl)-6-(3-methylimidazo[1,2-a]pyridin-6-yl)-5-(oxazol-2-yl)pyrazine-2-carboxamide]	> 10000	13.2	5.31	1640
Cc1cnc2ccc(-c3nc(C(=O)NC[C@H]4CCCO4)c(N)nc3-n3nccn3)cn12 [Cmpd. 229, 3-amino-6-[3-methylimidazo[1,2-a]pyridin-6-yl]-N-[[(2R)-oxolan-2-yl]methyl]-5-(2H-1,2,3-triazol-2-yl)pyrazine-2-carboxamide]	1650	19	2.4	157
COCCCNC(=O)c1nc(-c2ccc3ncc(C)n3c2)c(-c2ncco2)nc1N [Example 149, 3-amino-N-(3-methoxypropyl)-6-[3-methylimidazo[1,2-a]pyridin-6-yl]-5-(1,3-oxazol-2-yl)pyrazine-2-carboxamide]	1560	7.8	1.5	85
Cc1cnc2ccc(-c3nc(C(=O)NCCn4cccn4)c(N)nc3-c3ncco3)cn12 [Example 158, N-(2-(1H-pyrazol-1-yl)ethyl)-3-amino-6-(3-methylimidazo[1,2-a]pyridin-6-yl)-5-(oxazol-2-yl)pyrazine-2-carboxamide]	756	3.46	1.27	167
Cn1cc(-c2nc(C(=O)NCc3ccccc3OC(F)F)c(N)nc2-c2ccc(F)cc2)ccc1=O [Example 72, 3-amino-N-(2-(difluoromethoxy)benzyl)-5-(4-fluorophenyl)-6-(1-methyl-6-oxo-1,6-dihydropyridin-3-yl)pyrazine-2-carboxamide]	14	8.1	1.3	23
